40 compounds from US7632829B2, “Diazepan derivatives” (Hoffmann-La Roche Inc., priority 2006, dated 2009) can be followed below.

pIC50: −log10 of the molar value.

The target of this assay is T1, human chemokine receptor 2 isoform B (Homo sapiens, UniProt P41597).
T1 construct: host or cells: CHOK1-CCR2B-A5 (CHO-K1)
T1 sequence (P41597 1-360 isoform P41597-2): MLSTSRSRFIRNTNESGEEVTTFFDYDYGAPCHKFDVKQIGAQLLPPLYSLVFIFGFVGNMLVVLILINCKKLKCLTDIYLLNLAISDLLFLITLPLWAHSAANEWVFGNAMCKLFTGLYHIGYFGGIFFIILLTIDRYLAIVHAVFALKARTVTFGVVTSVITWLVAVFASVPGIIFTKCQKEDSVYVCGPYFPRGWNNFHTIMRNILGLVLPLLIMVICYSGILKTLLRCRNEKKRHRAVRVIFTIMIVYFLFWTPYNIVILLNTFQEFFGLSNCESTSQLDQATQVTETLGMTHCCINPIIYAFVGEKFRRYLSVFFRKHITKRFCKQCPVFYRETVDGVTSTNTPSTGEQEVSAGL
The experiment in a line: Calcium mobilization assay (FLIPR, CHOK1-CCR2B-A5 cells, 20 nM MCP-1). In kind it is cell-based. As to conditions: Ca mobilisation assay, CCR2, antagonist activity vs 20 nM MCP-1. The method in brief:
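Antagonism read as IC50 against 20 nM MCP-1-evoked calcium rise (peak minus baseline Fluo-4 signal, FLIPR) in CCR2B-overexpressing CHO-K1 cells. Compounds were preincubated 20-30 min at 30 °C, with agonist activity recorded for 80 s on addition.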
For orientation: pIC50 means the IC50 on a negative log10 scale, so that one unit is a factor of ten. `CO[C@@H]1CN(CCCN2CCN(C(=O)/C=C/c3ccc(Cl)c(Cl)c3)CCC2=O)CC[C@@H]1CO` (racemic) [Example 269, (rac,cis)-1-[(E)-3-(3,4-Dichloro-phenyl)-acryloyl]-4-[3-(3-methoxy-4-hydroxymethyl-piperidin-1-yl)-propyl]-[1,4]diazepan-5-one]: the pIC50 is 6.21.

In the case of `O=C(/C=C/c1ccc(Cl)c(F)c1)N1CCC(=O)N(CCCN2CCC3(CC3)C(O)C2)CC1` (stereo not drawn) [Example 493, 1-[(E)-3-(4-Chloro-3-fluoro-phenyl)-acryloyl]-4-[3-((+)-4-hydroxy-6-aza-spiro[2.5]oct-6-yl)-propyl]-[1,4]diazepan-5-one], the pIC50 is 7.82.

On to `O=C(/C=C/c1ccc2ccccc2c1)N1CCC(=O)N(CCN2CCCC2)CC1` [Example 25, 1-(E)-(3-Naphthalen-2-yl-acryloyl)-4-(2-pyrrolidin-1-yl-ethyl)-[1,4]diazepan-5-one], for which the pIC50 was 5.99.

In the case of `O=C(/C=C/c1ccc(F)c(Cl)c1)N1CCC(=O)N(CCCN2CCC(CO)CC2)CC1` [Example 212], the pIC50 is 6.36.

In the case of `CC(C)N1CCN(CC(O)CN2CCN(C(=O)/C=C/c3ccc(Cl)c(Cl)c3)CCC2=O)CC1C` (racemic) [Example 301], the pIC50 was 6.01.

With `CC1(C)CCN(CCCCN2CCN(C(=O)/C=C/c3ccc(Cl)c(Cl)c3)CCC2=O)CC1O` (racemic) [Example 481], the negative-log IC50 (pIC50) is 8.05.

As for `O=C(/C=C/c1ccc(Cl)c(Cl)c1)N1CCC(=O)N(CCN2CCC[C@H]2CO)CC1` [Example 117, (S)-1-[(E)-3-(3,4-Dichloro-phenyl)-acryloyl]-4-[3-(2-hydroxymethyl-pyrrolidin-1-yl)-ethyl]-[1,4]diazepan-5-one], the negative logarithm of the IC50 (pIC50) was 6.34.

On to `O=C(/C=C/c1ccc(Cl)c(Cl)c1)N1CCC(=O)N(CCCN2CCCCC2CO)CC1` (racemic) [Example 227], for which the pIC50 is 6.39.

In the case of `O=C(/C=C/c1ccc(Cl)c(Cl)c1)N1CCC(=O)N(CCN2CCC(O)(c3ccccc3)CC2)CC1` [Example 96, 1-[(E)-3-(3,4-Dichloro-phenyl)-acryloyl]-4-[3-(4-hydroxy-4-phenyl-piperidin-1-yl)-ethyl]-[1,4]diazepan-5-one], the pIC50 was 5.94.

Take `CC1CCC(N(C)CCCN2CCN(C(=O)/C=C/c3ccc(Cl)c(Cl)c3)CCC2=O)CC1` (mixture of isomers) [Example 54, cis/trans-1-[(E)-3-(3,4-Dichloro-phenyl)-acryloyl]-4-{3-[methyl-(4-methyl-cyclohexyl)-amino]-propyl}-[1,4]diazepan-5-one]: the negative-log IC50 (pIC50) is 6.13.

Consider `C[C@@H]1CN(CCCN2CCCCC2)C(=O)CCN1C(=O)/C=C/c1ccc(Cl)c(Cl)c1` [Example 186, (R)-1-[(E)-3-(3,4-Dichloro-phenyl)-acryloyl]-2-methyl-4-(3-piperidin-1-yl-propyl)-[1,4]diazepan-5-one], for which the pIC50 is 7.42.

With `COCC1CC(OC)C(O)CN1CCCCN1CCN(C(=O)/C=C/c2ccc(Cl)c(Cl)c2)CCC1=O` (racemic) [Example 478], the negative logarithm of the IC50 (pIC50) was 6.00.

As to `O=C(/C=C/c1ccc(F)c(Cl)c1)N1CCC(=O)N(CCCN2CCC3(CC3)C(O)C2)CC1` (stereo not drawn) [Example 189, 1-[(E)-3-(3-Chloro-4-fluoro-phenyl)-acryloyl]-4-[3-((-)-4-hydroxy-6-aza-spiro[2.5]oct-6-yl)-propyl]-[1,4]diazepan-5-one], the negative-log IC50 (pIC50) is 8.10.

In the case of `COC1CCCN(CCCCN2CCN(C(=O)/C=C/c3ccc(Cl)c(Cl)c3)CCC2=O)C1` (racemic) [Example 435], the negative logarithm of the IC50 (pIC50) was 6.55.

For the compound `O=C(/C=C/c1ccc(Cl)c(Cl)c1)N1CCC(=O)N(CCCCN2CCC3(CCCO3)CC2)CC1` (racemic) [Example 467], the pIC50 is 5.94.

For `CC1CN(CCCCN2CCN(C(=O)/C=C/c3ccc(Cl)c(Cl)c3)CCC2=O)CCC1O` (racemic) [Example 440], the pIC50 was 6.99.

As for `CN(CCN1CCN(C(=O)/C=C/c2ccc(Cl)c(Cl)c2)CCC1=O)C1CCCC1` [Example 109, 4-[-3-(Cyclopentyl-methyl-amino)-ethyl]-1-[(E)-3-(3,4-dichloro-phenyl)-acryloyl]-[1,4]diazepan-5-one], the negative logarithm of the IC50 (pIC50) was 6.28.

On to `O=C(/C=C/c1ccc(Cl)c(Cl)c1)N1CCC(=O)N(CC(O)CN2CC[C@@H](F)[C@H](O)C2)CC1` (mixture of isomers) [Example 284], for which the negative-log IC50 (pIC50) is 6.14.

For the compound `CC1CCC(O)CN1CCCN1CCN(C(=O)/C=C/c2ccc(Cl)c(Cl)c2)CCC1=O` (racemic) [Example 272], the negative-log IC50 (pIC50) was 6.72.

Turning to `O=C(/C=C/c1ccc(Cl)c(F)c1)N1CCC(=O)N(CCCCN2CCC[C@H](O)[C@@H]2CO)CC1` (racemic) [Example 419], the pIC50 is 6.60.

On to `O=C(/C=C/c1ccc(F)c(Cl)c1)N1CCC(=O)N(CCCCN2CCN(C3CC3)CC2)CC1` [Example 397], for which the negative logarithm of the IC50 (pIC50) is 6.03.

`O=C(/C=C/c1ccc(Cl)c(Cl)c1)N1CCC(=O)N(CC(O)CN2CCCC(O)C2)CC1` (racemic) [Example 281]: the pIC50 is 6.89.

Turning to `C[N+]1(CCCN2CCN(C(=O)C=Cc3ccc(Cl)c(Cl)c3)CCC2=O)CCCCC1` [Example 154, 1-(3-{4-[3-(3,4-Dichloro-phenyl)-acryloyl]-7-oxo-[1,4]diazepan-1-yl}-propyl)-1-methyl-piperidinium iodide], the negative-log IC50 (pIC50) is 6.43.

For `CC1C(O)CCCN1CCCN1CCN(C(=O)C=Cc2ccc(F)c(Cl)c2)CCC1=O` (mixture of isomers) [Example 208, (rac,trans)-1-[(E)-3-(3-Chloro-4-fluoro-phenyl)-acryloyl]-4-[3-(3-hydroxy-2-methyl-piperidin-1-yl)-propyl]-[1,4]diazepan-5-one], the pIC50 is 6.11.

`CC1(C)CCN(C[C@H](O)CCN2CCN(C(=O)/C=C/c3ccc(Cl)c(Cl)c3)CCC2=O)CC1O` (stereo partly shown) [Example 501]: the pIC50 is 6.81.

Turning to `O=C(/C=C/c1ccc(F)c(Cl)c1)N1CCC(=O)N(CCCCN2CC[C@H](O)[C@H](F)C2)CC1` (racemic) [Example 390], the pIC50 was 5.96.

In the case of `CCN(CCO)CCCCN1CCN(C(=O)/C=C/c2ccc(Cl)c(Cl)c2)CCC1=O` [Example 461], the negative logarithm of the IC50 (pIC50) is 6.21.

For `O=C(/C=C/c1ccc(Cl)c(Cl)c1)N1CCC(=O)N(CCC(O)CN2CCCC(O)C2)CC1` (racemic) [Example 171, (rac)-1-[(E)-3-(3,4-Dichloro-phenyl)-acryloyl]-4-[3-hydroxy-4-(3-hydroxy-piperidin-1-yl)-butyl]-[1,4]diazepan-5-one], the pIC50 is 6.00.

In the case of `O=C(/C=C/c1ccc(Cl)c(Cl)c1)N1CCC(=O)N(CCCN2CCC(N3CCNC3=O)CC2)CC1` [Example 56, 1-[(E)-3-(3,4-Dichloro-phenyl)-acryloyl]-4-{3-[4-(2-oxo-imidazolidin-1-yl)-piperidin-1-yl]-propyl}-[1,4]diazepan-5-one], the pIC50 was 5.97.

With `COCC1CCCN(CCCCN2CCN(C(=O)/C=C/c3ccc(Cl)c(Cl)c3)CCC2=O)C1` (racemic) [Example 432], the pIC50 is 7.80.

Consider `O=C(/C=C/c1ccc(Cl)c(Cl)c1)N1CCC(=O)N(CCCNC2CCCC2)CC1` [Example 36, 4-[3-(Cyclopentyl-amino)-propyl]-1-[(E)-3-(3,4-dichloro-phenyl)-acryloyl]-[1,4]diazepan-5-one], for which the pIC50 is 6.14.

Take `CC1(O)CCCN(CCCN2CCN(C(=O)/C=C/c3ccc(Cl)c(Cl)c3)CCC2=O)C1` (racemic) [Example 232]: the pIC50 is 7.04.

As to `C[C@@H]1CN(CCCCN2CCN(C(=O)/C=C/c3ccc(Cl)c(Cl)c3)CCC2=O)CC[C@@H]1O` (racemic) [Example 458], the pIC50 is 6.83.

As to `CC1CN(C(=O)/C=C/c2ccc(Cl)c(Cl)c2)CCN(CCCN2CCCCC2)C1=O` (racemic) [Example 187, (rac)-1-[(E)-3-(3,4-Dichloro-phenyl)-acryloyl]-6-methyl-4-(3-piperidin-1-yl-propyl)-[1,4]diazepan-5-one], the pIC50 was 6.41.

Consider `CC1CCN(CCN2CCN(C(=O)/C=C/c3ccc(Cl)c(Cl)c3)CCC2=O)CC1` [Example 120, 1-[(E)-3-(3,4-Dichloro-phenyl)-acryloyl]-4-[3-(4-methyl-piperidin-1-yl)-ethyl]-[1,4]diazepan-5-one], for which the pIC50 is 5.94.

Consider `O=C1NCC2(CCN(CCCN3CCN(C(=O)/C=C/c4ccc(F)c(Cl)c4)CCC3=O)CC2)O1` [Example 195], for which the pIC50 is 6.34.

On to `O=C(/C=C/c1cccc(Cl)c1)N1CCC(=O)N(CCN2CCC(c3ccc(F)cc3)CC2)CC1` [Example 33, 1-[(E)-3-(3-Chloro-phenyl)-acryloyl]-4-[3-(4-(4-fluoro-phenyl)-piperidin-1-yl)-ethyl]-[1,4]diazepan-5-one], for which the pIC50 was 6.46.

Consider `CC1CN(CCCCN2CCN(C(=O)/C=C/c3ccc(F)c(Cl)c3)CCC2=O)CCC1O` (racemic) [Example 400], for which the pIC50 is 6.58.

`O=C(/C=C/c1ccc(Cl)c(Cl)c1)N1CCC(=O)N(CCCN2CCCCC2)CC1` [Example 4, 1-[(E)-3-(3,4-Dichloro-phenyl)-acryloyl]-4-(3-piperidin-1-yl-propyl)-[1,4]diazepan-5-one]: the pIC50 is 6.82.

Regarding `CC(C)CN1CCN(CCCCN2CCN(C(=O)/C=C/c3ccc(Cl)c(Cl)c3)CCC2=O)CC1` [Example 465], the pIC50 was 6.42.
